Article PMC10970924 (Life, 2024)
Marks after values point to notes of the source that are not given here.

Tests used:
porcine neuronal tubulin = test: Tubulin polymerization assay (Cytoskeleton kit); type: biochemical; details: effector 10 µM; for Maximum Initial Rate of Polymerization V Max: tubulin 3 mg/mL, 37 °C
Protocol: To assess the effect of the test compounds on tubulin polymerization, a test kit from Cytoskeleton was used. The plate was pre-warmed to 37 °C for 20 min before starting the assay. Then, 10 µL of the compound of interest, at a 10-fold concentration in an assay buffer, was pipetted into the plate. For comparison, paclitaxel, a polymerization enhancer, and vinblastine, a tubulin polymerization inhibitor, were used. Both effectors were used at a concentration of 10 µM. The assay buffer served as a control. The plate was then incubated at 37 °C for 2 min, after which 100 µL of the diluted tubulin solution (containing 3 mg/mL of tubulin in 80 mM PIPES pH 6.9, 2 mM MgCl2, 0.5 mM EGTA, 1 mM GTP, and 7% glycerol) was added. The plate was then immediately placed in the plate reader. Absorbance was measured at 340 nm every minute for 61 readings on a Varioskan LUX (Thermo Scientific, Waltham, MA, USA) plate reader.

[1] = Neutralization of the ABTS radical; details: for EC50: 37 °C, 15 min, 738 nm, read-out: EC50 of half-maximal ABTS radical inhibition; for Trolox Equivalent Antioxidant Capacity (TEAC): ABTS radical neutralization, relative to Trolox
Protocol: Initially, an ABTS solution was prepared in water at a concentration of 7 mM. Subsequently, the radical cation ABTS^•+ was generated by mixing the original ABTS solution with 2.45 mM ammonium persulfate at a 1:1 ratio. This mixture was then allowed to stand in the dark at room temperature for 12–16 h before use. The diluted ABTS^•+ solution was prepared in a methanol/water mixture (1:1) reaching an optical density of 0.7 units at 738 nm (~0.7 mM). Next, various concentrations of compounds (ranging from 1000, 500, 250, 125, 62.5, 31.2, 15.6, to 7.8 μM) in a volume of 130 µL in a methanol/water mixture (1:1) were mixed with the ABTS radical cation solution (~0.7 mM) in a volume of 130 µL. The mixture was then incubated at 37 °C in a water bath for 15 min. The optical density was measured at 738 nm using the Infinite M200 PRO (TECAN, Zürich, Switzerland) plate reader. The percentage inhibition of ABTS absorption relative to the control was calculated. A percent inhibition vs. antioxidant concentration graph was plotted and the concentration of the antioxidant that suppresses the optical density of the ABTS radical by 50% (EC50) was determined. The Trolox Equivalent Antioxidant Capacity (TEAC) was also calculated.

## CC(=O)O[C@H]1C(=O)[C@@]2(C)[C@H]([C@H](OC(=O)c3ccccc3)[C@]3(O)C[C@H](OC(=O)[C@H](O)[C@@H](NC(=O)c4ccccc4)c4ccccc4)C(C)=C1C3(C)C)[C@]1(OC(C)=O)CO[C@@H]1C[C@@H]2O [Paclitaxel, paclitaxel]
Porcine neuronal tubulin
  Vmax, times higher than in the control reaction: 1.2
  Maximum Initial Rate of Polymerization V Max: 8 * mOD/Min
Porcine neuronal tubulin; listed as paclitaxel
  Maximum Initial Rate of Polymerization V Max: 8.0 mOD/Min

## Cc1c(C)c2c(c(C)c1O)CCC(C)(C(=O)O)O2 (stereo not drawn) [Trolox]
[1]
  EC50: 15.7 ± 3.4 µM
  Trolox Equivalent Antioxidant Capacity (TEAC): 1.0

## O=c1c(O)c(-c2ccc(O)c(O)c2)oc2cc(O)cc(O)c12 [Quercetin]
[1]
  EC50: 3.2 ± 1.6 µM
  Trolox Equivalent Antioxidant Capacity (TEAC): 4.9

## CC[C@]1(O)C[C@@H]2CN(CCc3c([nH]c4ccccc34)[C@@](C(=O)OC)(c3cc4c(cc3OC)N(C)[C@H]3[C@@](O)(C(=O)OC)[C@H](OC(C)=O)[C@]5(CC)C=CCN6CC[C@]43[C@@H]65)C2)C1 [Vinblastine, vinblastine]
Porcine neuronal tubulin
  Inhibition of tubulin polymerization, fold: 3
  Maximum Initial Rate of Polymerization V Max: 2.4 * mOD/Min
Porcine neuronal tubulin; listed as vinblastine
  Maximum Initial Rate of Polymerization V Max: 2.4 mOD/Min

## O=C1O[C@H]([C@@H](O)CO)C(O)=C1O [Ascorbic acid]
[1]
  EC50: 15.2 ± 4.8 µM
  Trolox Equivalent Antioxidant Capacity (TEAC): 1.03
